For series [1] the following is noted: in DMF, at 25° C.; data from catalogue of NITTO CHEMICAL INDUSTRY CO., LTD.; cited from earlier work.
Series [2] can be described thus: Acetylene stripped from DMF saturated with acetylene on heating. The class given is physicochemical. As to conditions: heated to 0° C. An excerpt: The amount of acetylene dissolved in a solvent depends on the temperature of the solvent. Usually increasing the temperature tends to decrease the solubility. […] As mentioned above, the terminology "stripped acetylene" is intended to refer to "acetylene stripped from a solvent".

This is an account of results in patent US4863493A, “High purity acetylene gas” (Nichigo Acetylene Kabushiki Kaisha, priority 1987, dated 1989).

With `[C-]#[O+]` [CO], the Solubility in series [1] was 0.06 l/l.
As to `C#C` [C2 H2, acetylene], the “acetylene at S.T.P. stripped from 1 l of DMF” value in series [2] (DMF saturated with acetylene at -40° C.) is “about 238 l”; in series [2] (DMF saturated with acetylene at -60° C.), “about 382 l”. Moreover, the Solubility in series [1] was 31.4 l/l.
Take `[HH]` [H2, hydrogen]: the Solubility in series [1] is listed as 0.04 l/l.
Regarding `O=C=O` [CO2, carbon dioxide], in series [1], the Solubility is listed as 4.5 l/l.
